Measurements taken from ChEMBL document CHEMBL2157927, “Imidazotriazinone compounds: patent highlight” (ACS Med Chem Lett, 2012).

Columns and labels:
[1] = Selectivity ratio of IC50 for PDE1A to IC50 for PDE9
[2] = Inhibition of PDE9 by spectrophotometric analysis
[3] = Selectivity ratio of IC50 for PDE1B to IC50 for PDE9

SMILES | Ratio IC50 [1] | IC50 [2] | Ratio IC50 [3]
C[C@@H]1CN(Cc2cccc(F)c2)C[C@H]1c1nn2c(C3CCOCC3)ncc2c(=O)[nH]1 | > 1000 | < 1000 nM | > 1000
C[C@@H]1CN(Cc2ncccn2)C[C@H]1c1nn2c(C3CCOCC3)ncc2c(=O)[nH]1 | – | > 10000 nM | –
C[C@@H]1CN(Cc2cnccn2)C[C@H]1c1nn2c(C3CCOCC3)ncc2c(=O)[nH]1 | – | 1000 nM | –
